Test results from the NIST ThermoML archive (doi:10.1016/j.jct.2012.11.032).

Assay: xn = mol fraction of the nth substance listed
Conditions: 101 kPa, Liquid; for speed of sound: Sing-around technique in a fixed-path interferometer; for mass density: Vibrating tube method

CCCCCCCC[n+]1ccn(C)c1.[Cl-] [1-methyl-3-octylimidazolium chloride] + O
Conditions	mass density, 283 K [kg/m3]	mass density, 288 K [kg/m3]	speed of sound, 283 K [m/s]	speed of sound, 288 K [m/s]
x1 = 0.000276	999.831	999.227	1451.5	1469.6
x1 = 0.000495	999.918	999.302	1454.3	1471.9
x1 = 0.000781	1000.05	999.421	1457	1474.6
x1 = 0.00102	1000.16	999.519	1460.1	1477.3
x1 = 0.0013	1000.3	999.641	1463.2	1480.2
x1 = 0.001503	1000.38	999.712	1465.5	1482.2
x1 = 0.001892	1000.56	999.863	1469.7	1486.1
x1 = 0.002073	1000.64	999.938	1471.7	1488
x1 = 0.002376	1000.78	1000.06	1474.9	1490.9
x1 = 0.00261	1000.89	1000.15	1477.4	1493.3
x1 = 0.002774	1000.96	1000.21	1479	1494.7
x1 = 0.003111	1001.11	–	1482.5	1497.9
x1 = 0.003716	1001.38	–	1488.4	1503.2
x1 = 0.003899	1001.46	–	1489.7	1504.7
x1 = 0.004079	1001.55	–	1491.9	1506.4
x1 = 0.004181	1001.59	–	1492.8	1507.3
x1 = 0.004462	1001.71	–	1495.5	1509.7
x1 = 0.004601	1001.77	–	1496.8	1510.9
x1 = 0.004981	1001.93	–	1500.1	1513.8
x1 = 0.005198	1002.02	–	1501.6	1515.3
x1 = 0.005607	1002.2	–	1505.4	1518.4
x1 = 0.005782	1002.27	–	1506.8	1519.6
